Assay results taken from article PMC11233931, “Remodeling tumor‐associated macrophage for anti‐cancer effects by rational design of irreversible inhibition of mitogen‐activated protein kinase‐activated protein kinase 2” (MedComm, 2024).

What was measured:
Assay in all cases: Eurofins kinase selectivity profile against 380 other human recombinant kinases (Table S2)
Type in all cases: biochemical
[1] = biological target: T1, 380 human recombinant protein kinases (Homo sapiens, UniProt Q14164); conditions: IKKε(h), read-out: Inhibition rate
T1 construct: purchased Eurofins (Celle Lévescault)
T1 sequence (Q14164 1-716): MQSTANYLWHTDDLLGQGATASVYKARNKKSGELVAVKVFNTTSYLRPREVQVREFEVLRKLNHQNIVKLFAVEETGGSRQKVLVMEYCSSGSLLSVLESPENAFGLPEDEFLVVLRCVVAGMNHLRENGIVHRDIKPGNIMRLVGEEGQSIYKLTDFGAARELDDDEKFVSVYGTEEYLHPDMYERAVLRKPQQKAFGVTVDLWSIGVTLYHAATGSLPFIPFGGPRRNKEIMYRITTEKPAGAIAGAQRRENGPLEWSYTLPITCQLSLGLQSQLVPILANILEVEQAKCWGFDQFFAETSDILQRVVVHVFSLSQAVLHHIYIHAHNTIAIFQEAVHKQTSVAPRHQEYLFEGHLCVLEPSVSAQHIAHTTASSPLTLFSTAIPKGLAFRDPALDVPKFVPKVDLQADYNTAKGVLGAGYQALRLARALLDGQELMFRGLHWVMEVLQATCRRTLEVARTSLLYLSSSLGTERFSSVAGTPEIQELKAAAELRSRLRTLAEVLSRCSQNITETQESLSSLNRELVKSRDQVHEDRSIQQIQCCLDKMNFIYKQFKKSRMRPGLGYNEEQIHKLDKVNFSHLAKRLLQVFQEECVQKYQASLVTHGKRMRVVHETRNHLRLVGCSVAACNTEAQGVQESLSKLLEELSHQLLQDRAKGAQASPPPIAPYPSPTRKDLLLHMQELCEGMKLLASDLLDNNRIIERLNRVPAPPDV
Summary of the method: (§1)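 Commercial selectivity screen of the test compound against a panel of 380 human recombinant protein kinases, run by an outside contractor at several compound concentrations to check whether its potency was specific for MK2.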

[2] = biological target: T2, 380 human recombinant protein kinases (Homo sapiens, UniProt Q16832); conditions: DDR2(h), read-out: Inhibition rate
T2 construct: purchased Eurofins (Celle Lévescault)
T2 sequence (Q16832 22-855): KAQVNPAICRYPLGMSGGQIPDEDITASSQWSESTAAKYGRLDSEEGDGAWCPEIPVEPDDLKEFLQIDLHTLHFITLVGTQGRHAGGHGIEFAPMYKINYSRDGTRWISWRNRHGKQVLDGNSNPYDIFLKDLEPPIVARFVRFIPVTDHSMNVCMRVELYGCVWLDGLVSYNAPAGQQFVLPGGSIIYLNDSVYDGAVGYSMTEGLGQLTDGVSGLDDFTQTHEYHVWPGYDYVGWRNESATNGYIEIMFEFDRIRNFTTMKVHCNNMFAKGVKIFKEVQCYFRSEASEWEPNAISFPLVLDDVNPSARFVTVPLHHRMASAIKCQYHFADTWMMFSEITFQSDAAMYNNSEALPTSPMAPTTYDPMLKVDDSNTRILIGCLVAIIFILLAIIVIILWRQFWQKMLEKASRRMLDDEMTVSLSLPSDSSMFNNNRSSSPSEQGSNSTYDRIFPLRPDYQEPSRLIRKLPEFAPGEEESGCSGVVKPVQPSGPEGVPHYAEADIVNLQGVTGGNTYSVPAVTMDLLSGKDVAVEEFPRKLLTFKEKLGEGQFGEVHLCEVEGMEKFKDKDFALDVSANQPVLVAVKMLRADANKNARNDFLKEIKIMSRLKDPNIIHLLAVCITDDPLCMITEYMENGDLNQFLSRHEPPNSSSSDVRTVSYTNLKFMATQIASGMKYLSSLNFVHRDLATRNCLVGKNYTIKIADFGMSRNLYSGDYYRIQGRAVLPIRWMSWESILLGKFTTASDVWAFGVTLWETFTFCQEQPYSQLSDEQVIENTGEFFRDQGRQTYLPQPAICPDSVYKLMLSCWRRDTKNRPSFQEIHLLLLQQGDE
Summary of the method: as §1

[3] = biological target: T3, 380 human recombinant protein kinases (Homo sapiens, UniProt Q92519); conditions: TRB2(h), read-out: Inhibition rate (%)
T3 construct: purchased Eurofins (Celle Lévescault)
T3 sequence (Q92519 1-343): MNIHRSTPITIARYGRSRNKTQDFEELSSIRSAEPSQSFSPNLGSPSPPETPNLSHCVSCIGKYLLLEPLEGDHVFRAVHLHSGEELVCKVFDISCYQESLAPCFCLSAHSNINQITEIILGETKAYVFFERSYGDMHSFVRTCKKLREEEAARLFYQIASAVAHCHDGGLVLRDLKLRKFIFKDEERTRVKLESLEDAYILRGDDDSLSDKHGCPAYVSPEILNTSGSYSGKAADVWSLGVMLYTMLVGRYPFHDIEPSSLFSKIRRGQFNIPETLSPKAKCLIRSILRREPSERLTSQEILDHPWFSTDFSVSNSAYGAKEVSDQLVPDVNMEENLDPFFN
Summary of the method: as §1

[4] = biological target: T4, 380 human recombinant protein kinases (Homo sapiens, UniProt Q9NY57); conditions: STK32B(h), read-out: Inhibition rate (%)
T4 construct: purchased Eurofins (Celle Lévescault)
Summary of the method: as §1

[5] = biological target: T5, 380 human recombinant protein kinases (Homo sapiens, UniProt Q9Y2H1); conditions: NDR2(h), read-out: Inhibition rate
T5 construct: purchased Eurofins (Celle Lévescault)
Summary of the method: as §1

T5 sequence (Q9Y2H1 whole entry): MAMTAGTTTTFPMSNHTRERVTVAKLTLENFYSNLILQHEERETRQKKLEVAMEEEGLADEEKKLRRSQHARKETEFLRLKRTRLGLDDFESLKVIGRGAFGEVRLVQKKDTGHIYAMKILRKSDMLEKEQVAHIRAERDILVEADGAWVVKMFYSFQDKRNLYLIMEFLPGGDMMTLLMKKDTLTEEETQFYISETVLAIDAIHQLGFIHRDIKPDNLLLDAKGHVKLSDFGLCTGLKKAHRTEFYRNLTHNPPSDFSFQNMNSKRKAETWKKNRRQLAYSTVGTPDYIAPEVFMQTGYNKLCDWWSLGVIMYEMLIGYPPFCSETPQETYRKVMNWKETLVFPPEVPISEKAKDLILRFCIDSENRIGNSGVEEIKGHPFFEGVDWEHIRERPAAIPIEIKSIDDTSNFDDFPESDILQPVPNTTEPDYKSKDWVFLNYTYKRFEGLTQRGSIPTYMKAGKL
T4 sequence (Q9NY57 whole entry): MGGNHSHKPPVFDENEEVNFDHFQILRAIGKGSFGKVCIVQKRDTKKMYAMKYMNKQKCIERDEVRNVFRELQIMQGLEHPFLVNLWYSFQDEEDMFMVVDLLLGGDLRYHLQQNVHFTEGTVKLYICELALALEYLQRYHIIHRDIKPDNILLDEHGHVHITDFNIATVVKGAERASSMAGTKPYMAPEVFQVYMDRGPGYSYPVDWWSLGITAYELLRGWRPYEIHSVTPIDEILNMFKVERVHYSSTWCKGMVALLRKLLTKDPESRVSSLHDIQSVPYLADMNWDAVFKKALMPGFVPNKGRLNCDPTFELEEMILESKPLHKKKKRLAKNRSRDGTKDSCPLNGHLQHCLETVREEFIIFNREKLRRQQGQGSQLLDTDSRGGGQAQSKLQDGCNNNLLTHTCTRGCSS

Compound: C=CC(=O)Nc1cc(-c2cc(-c3cc4c([nH]3)CCNC4=O)ccn2)ccc1OC(F)(F)F [compound 11]
- inhibition at 0.01 µM ([1]; 10 nM): -2%
- inhibition at 0.1 µM ([1]; 100 nM): -1%
- inhibition at 1 µM ([1]; 1000 nM): 5%
- inhibition at 0.01 µM ([2]; 10 nM): -7%
- inhibition at 0.1 µM ([2]; 100 nM): -10%
- inhibition at 1 µM ([2]; 1000 nM): -10%
- inhibition at 0.01 µM ([3]; 10 nM): 29%
- inhibition at 0.1 µM ([3]; 100 nM): 58%
- inhibition at 1 µM ([3]; 1000 nM): 85%
- inhibition at 0.01 µM ([4]; 10 nM): -9%
- inhibition at 0.1 µM ([4]; 100 nM): -5%
- inhibition at 1 µM ([4]; 1000 nM): -3%
- inhibition at 0.01 µM ([5]; 10 nM): -5%
- inhibition at 0.1 µM ([5]; 100 nM): -10%
- inhibition at 1 µM ([5]; 1000 nM): -2%
